US9840509B2, “Heterocyclic compounds” (CADILA HEALTHCARE LIMITED, priority 2014, dated 2017)

Experiments:
[1] = molecular target: T1, recombinant purified human BTK (Homo sapiens, UniProt Q06187); assay: In vitro BTK kinase assay on ADP Glo platform; assay type: biochemical; conditions: 2 hr room temperature, read-out: In-vitro BTK inhibitory activity: IC50
T1 construct: purchased SignalChem, USA
How it was run: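 Recombinant human BTK (3 ng/reaction) with compound dilutions in Tris pH 7.5, MgCl2/MnCl2, BSA, DTT; started with 50 µM ATP (final) and polyGln4Tyr1 substrate, 2 h at room temperature. ADP formed detected by ADP-Glo luminescence; IC50 by nonlinear fit versus uninhibited enzyme as 100%.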

CYP 2C8 = molecular target: T2, CYP 2C8 (Homo sapiens, UniProt P10632); assay: CYP inhibition in human liver microsomes, 2C8; assay type: in vitro ADME; conditions: pH 7.4, @ 10 μM concn
T2 construct: from tissue; host or cells: human liver microsomes
T2 sequence (P10632 1-490): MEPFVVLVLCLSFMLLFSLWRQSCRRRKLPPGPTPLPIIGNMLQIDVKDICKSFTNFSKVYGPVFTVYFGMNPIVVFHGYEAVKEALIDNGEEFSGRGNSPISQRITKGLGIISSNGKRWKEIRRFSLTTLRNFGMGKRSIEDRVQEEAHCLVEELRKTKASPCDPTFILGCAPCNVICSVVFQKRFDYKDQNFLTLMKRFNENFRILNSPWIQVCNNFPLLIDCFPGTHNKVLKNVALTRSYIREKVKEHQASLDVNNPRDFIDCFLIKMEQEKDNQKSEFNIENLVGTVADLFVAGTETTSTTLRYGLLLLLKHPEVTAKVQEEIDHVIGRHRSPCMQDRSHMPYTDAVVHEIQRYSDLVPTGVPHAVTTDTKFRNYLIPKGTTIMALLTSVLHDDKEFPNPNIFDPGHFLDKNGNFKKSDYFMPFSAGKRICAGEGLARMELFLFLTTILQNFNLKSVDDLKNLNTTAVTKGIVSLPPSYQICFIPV
How it was run: (§1)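 Test compounds at […] and 10 μM were incubated in duplicate with human liver microsomes, probe substrate and 1 mM NADPH in 100 mM phosphate buffer pH 7.4 at 37° C. Reactions were stopped with acetonitrile containing internal standard, and the marker-reaction metabolite was quantified by LC-MS/MS.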

CYP 2C9 = molecular target: T3, CYP 2C9 (Homo sapiens, UniProt P11712); assay: CYP inhibition in human liver microsomes, 2C9; assay type: in vitro ADME; conditions: pH 7.4, @ 10 μM concn
T3 construct: from tissue; host or cells: human liver microsomes
T3 sequence (P11712 whole entry): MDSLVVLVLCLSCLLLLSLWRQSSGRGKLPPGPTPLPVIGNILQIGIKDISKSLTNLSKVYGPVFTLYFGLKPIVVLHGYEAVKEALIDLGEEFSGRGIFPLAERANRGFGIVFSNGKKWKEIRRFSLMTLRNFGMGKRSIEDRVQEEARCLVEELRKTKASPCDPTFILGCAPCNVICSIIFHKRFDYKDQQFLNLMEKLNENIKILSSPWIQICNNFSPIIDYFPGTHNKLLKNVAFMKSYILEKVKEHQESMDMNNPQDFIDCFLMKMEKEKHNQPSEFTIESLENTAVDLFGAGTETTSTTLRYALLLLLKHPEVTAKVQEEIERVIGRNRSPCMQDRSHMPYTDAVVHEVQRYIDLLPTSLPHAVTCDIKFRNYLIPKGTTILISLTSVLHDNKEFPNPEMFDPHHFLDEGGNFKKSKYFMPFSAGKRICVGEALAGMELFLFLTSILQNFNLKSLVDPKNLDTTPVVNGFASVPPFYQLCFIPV
How it was run: as §1

CYP 2C19 = molecular target: T4, CYP 2C19 (Homo sapiens, UniProt P33261); assay: CYP inhibition in human liver microsomes, 2C19; assay type: in vitro ADME; conditions: pH 7.4, @ 10 μM concn
T4 construct: from tissue; host or cells: human liver microsomes
T4 sequence (P33261 whole entry): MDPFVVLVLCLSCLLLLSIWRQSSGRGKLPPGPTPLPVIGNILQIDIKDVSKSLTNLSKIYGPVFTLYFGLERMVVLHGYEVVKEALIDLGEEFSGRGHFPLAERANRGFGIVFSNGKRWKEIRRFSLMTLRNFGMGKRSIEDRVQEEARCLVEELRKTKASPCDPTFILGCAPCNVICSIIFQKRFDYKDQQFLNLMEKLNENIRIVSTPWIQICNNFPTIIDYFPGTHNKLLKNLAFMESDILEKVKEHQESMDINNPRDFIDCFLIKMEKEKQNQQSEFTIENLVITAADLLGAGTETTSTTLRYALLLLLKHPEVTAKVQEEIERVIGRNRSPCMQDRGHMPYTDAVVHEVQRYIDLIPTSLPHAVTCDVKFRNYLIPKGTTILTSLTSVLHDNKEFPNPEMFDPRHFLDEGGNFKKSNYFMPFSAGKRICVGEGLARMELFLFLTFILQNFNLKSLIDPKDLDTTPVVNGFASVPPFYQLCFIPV
How it was run: as §1

CYP 3A4 = molecular target: T5, CYP 3A4 (Homo sapiens, UniProt P08684); assay: CYP inhibition in human liver microsomes, 3A4; assay type: in vitro ADME; conditions: pH 7.4, @ 10 μM concn
T5 construct: from tissue; host or cells: human liver microsomes
T5 sequence (P08684 whole entry): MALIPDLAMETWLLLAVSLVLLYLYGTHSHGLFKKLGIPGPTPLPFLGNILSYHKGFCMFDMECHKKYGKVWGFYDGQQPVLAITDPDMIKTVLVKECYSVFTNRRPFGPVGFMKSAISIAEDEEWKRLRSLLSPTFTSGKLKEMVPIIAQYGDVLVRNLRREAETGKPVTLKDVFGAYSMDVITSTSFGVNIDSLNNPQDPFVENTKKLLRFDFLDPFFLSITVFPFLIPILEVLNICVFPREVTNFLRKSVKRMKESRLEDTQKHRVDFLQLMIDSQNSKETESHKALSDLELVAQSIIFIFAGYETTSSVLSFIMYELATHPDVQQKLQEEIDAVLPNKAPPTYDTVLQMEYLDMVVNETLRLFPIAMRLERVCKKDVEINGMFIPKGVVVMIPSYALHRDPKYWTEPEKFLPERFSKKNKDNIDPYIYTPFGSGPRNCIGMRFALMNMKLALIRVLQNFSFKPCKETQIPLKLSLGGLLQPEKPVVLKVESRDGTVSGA
How it was run: as §1

CYP 1A2 = molecular target: T6, CYP 1A2 (Homo sapiens, UniProt P05177); assay: CYP inhibition in human liver microsomes, 1A2; assay type: in vitro ADME; conditions: pH 7.4, @ 10 μM concn
T6 construct: from tissue; host or cells: human liver microsomes
T6 sequence (P05177 1-516): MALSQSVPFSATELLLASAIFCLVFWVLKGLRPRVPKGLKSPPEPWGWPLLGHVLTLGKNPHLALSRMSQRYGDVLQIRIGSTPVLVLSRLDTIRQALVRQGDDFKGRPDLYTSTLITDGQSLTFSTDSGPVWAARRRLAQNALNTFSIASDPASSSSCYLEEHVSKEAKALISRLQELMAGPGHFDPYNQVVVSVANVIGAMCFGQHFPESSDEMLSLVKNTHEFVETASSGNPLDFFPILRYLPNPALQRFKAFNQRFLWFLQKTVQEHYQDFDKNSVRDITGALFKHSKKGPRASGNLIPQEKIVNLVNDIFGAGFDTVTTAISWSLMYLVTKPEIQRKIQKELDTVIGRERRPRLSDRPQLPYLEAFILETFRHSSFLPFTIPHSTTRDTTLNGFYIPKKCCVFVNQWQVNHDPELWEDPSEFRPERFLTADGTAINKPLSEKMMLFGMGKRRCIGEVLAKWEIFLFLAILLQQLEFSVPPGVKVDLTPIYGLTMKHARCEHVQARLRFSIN
How it was run: as §1

CYP 2D6 = molecular target: T7, CYP 2D6 (Homo sapiens, UniProt P10635); assay: CYP inhibition in human liver microsomes, 2D6; assay type: in vitro ADME; conditions: pH 7.4, @ 10 μM concn
T7 construct: from tissue; host or cells: human liver microsomes
T7 sequence (P10635 whole entry): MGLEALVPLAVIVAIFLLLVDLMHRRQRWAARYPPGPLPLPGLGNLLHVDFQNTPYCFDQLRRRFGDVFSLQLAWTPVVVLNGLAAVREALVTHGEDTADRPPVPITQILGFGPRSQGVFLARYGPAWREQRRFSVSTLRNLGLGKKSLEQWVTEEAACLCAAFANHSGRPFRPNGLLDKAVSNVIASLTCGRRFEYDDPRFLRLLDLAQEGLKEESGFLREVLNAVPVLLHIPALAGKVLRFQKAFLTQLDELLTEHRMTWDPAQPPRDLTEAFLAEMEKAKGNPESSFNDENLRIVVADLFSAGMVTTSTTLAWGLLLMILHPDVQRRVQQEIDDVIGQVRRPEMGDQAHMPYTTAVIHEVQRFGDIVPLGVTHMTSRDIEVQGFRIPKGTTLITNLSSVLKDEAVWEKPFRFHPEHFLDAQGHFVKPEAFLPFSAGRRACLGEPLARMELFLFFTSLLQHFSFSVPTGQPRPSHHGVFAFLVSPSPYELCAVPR
How it was run: as §1

T1 sequence (Q06187 whole entry): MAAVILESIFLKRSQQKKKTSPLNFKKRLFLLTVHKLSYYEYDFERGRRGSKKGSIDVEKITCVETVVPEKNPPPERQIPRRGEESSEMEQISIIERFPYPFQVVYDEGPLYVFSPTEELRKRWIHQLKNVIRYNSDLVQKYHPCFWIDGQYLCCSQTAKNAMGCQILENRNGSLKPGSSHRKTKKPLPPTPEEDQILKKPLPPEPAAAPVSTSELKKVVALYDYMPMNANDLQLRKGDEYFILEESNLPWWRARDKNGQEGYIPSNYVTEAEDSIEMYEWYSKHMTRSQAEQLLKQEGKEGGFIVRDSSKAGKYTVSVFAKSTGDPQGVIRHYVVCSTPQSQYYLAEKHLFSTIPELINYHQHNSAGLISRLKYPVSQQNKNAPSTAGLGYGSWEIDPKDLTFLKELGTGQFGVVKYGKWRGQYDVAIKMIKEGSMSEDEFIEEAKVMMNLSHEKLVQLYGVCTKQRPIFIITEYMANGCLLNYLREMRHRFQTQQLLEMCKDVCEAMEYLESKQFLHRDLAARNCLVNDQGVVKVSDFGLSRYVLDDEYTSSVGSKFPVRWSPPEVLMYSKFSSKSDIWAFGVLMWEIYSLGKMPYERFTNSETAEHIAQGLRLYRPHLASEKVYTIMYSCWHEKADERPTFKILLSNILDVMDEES

| SMILES | IC50 [1] | inhibition at 10 μM (CYP 2C8) | inhibition at 10 μM (CYP 2C9) | inhibition at 10 μM (CYP 2C19) | inhibition at 10 μM (CYP 3A4) | inhibition at 10 μM (CYP 1A2) | inhibition at 10 μM (CYP 2D6) |
| --- | --- | --- | --- | --- | --- | --- | --- |
| Cc1ccnc(N(C)C(=O)c2ccc(-c3nn(C4CC5CN(C(=O)/C=C/CN(C)C)CC5C4)c4ncnc(N)c34)cc2)c1 (centres unmarked) [Compound 55, (E)-4-(4-amino-1-(2-(4-(dimethylamino)but-2-enoyl)octahydrocyclopenta [c]pyrrol-5-yl)-1H-pyrazolo[3,4-d]pyrimidin-3-yl)-N-methyl-N-(4-methylpyridin-2-yl)benzamide] | 0.08 µM | > 50% | > 50% | > 50% | > 50% | < 50% | < 50% |
| C=CC(=O)N1CC2CC(n3nc(-c4ccc5ncoc5c4)c4c(N)ncnc43)CC2C1 (centres unmarked) [Compound 17, 1-(5-(4-amino-3-(benzo[d]oxazol-6-yl)-1H-pyrazolo[3,4-d]pyrimidin-1-yl)hexahydrocyclopenta[c]pyrrol-2(1H)-yl)prop-2-en-1-one] | 0.005 µM | < 50% | < 50% | < 50% | > 50% | < 50% | < 50% |
| C=CC(=O)N1CC2CC(n3nc(-c4ccc(/C(=N/c5cc(C)ccn5)OC)cc4)c4c(N)ncnc43)CC2C1 (centres unmarked) [Compound 41, (Z)-methyl 4-(1-(2-acryloyloctahydrocyclopenta[c]pyrrol-5-yl)-4-amino-1H-pyrazolo[3,4-d]pyrimidin-3-yl)-N-(4-methylpyridin-2-yl)benzimidate] | 0.0035 µM | < 50% | < 50% | < 50% | > 50% | < 50% | < 50% |
| C=CC(=O)N1CC2CC(n3nc(-c4ccc5nc(C)sc5c4)c4c(N)ncnc43)CC2C1 (centres unmarked) [Compound 5, 1-(5-(4-amino-3-(2-methylbenzo[d]thiazol-6-yl)-1H-pyrazolo[3,4-d]pyrimidin-1-yl)hexahydrocyclopenta[c]pyrrol-2(1H)-yl)prop-2-en-1-one] | 0.008 µM | < 50% | < 50% | < 50% | > 50% | < 50% | < 50% |
| C=CC(=O)N1CC2CC(n3nc(-c4ccc(-c5nnc(-c6ccccn6)o5)cc4)c4c(N)ncnc43)CC2C1 (centres unmarked) [Compound 26, 1-(5-(4-amino-3-(4-(5-(pyridin-2-yl)-1,3,4-oxadiazol-2-yl)phenyl)-1H-pyrazolo[3,4-d]pyrimidin-1-yl)hexahydrocyclopenta[c]pyrrol-2(1H)-yl)prop-2-en-1-one] | 0.0011 µM | < 50% | < 50% | < 50% | < 50% | < 50% | < 50% |
| C=CC(=O)N1CC2CN(c3ccc(Cn4nc(-c5ccc(Oc6ccccc6)cc5)c5c(N)ncnc54)cn3)CC2C1 (centres unmarked) [Compound 3, 1-(5-(5-((4-amino-3-(4-phenoxyphenyl)-1H-pyrazolo[3,4-d]pyrimidin-1-yl)methyl)pyridin-2-yl)hexahydropyrrolo[3,4-c]pyrrol-2(1H)-yl)prop-2-en-1-one] | 0.008 µM | < 50% | > 50% | < 50% | < 50% | < 50% | < 50% |
| C=CC(=O)N1CC2CC(n3nc(-c4ccc5oc(-c6ccccc6)nc5c4)c4c(N)ncnc43)CC2C1 (centres unmarked) [Compound 23, 1-(5-(4-amino-3-(2-phenylbenzo[d]oxazol-5-yl)-1H-pyrazolo[3,4-d]pyrimidin-1-yl)hexahydrocyclopenta[c]pyrrol-2(1H)-yl)prop-2-en-1-one] | 0.048 µM | > 50% | > 50% | < 50% | > 50% | < 50% | < 50% |
| Cc1ccnc(NC(=O)c2ccc(-c3nn(C4CC5CN(C(=O)/C=C/CN(C)C)CC5C4)c4ncnc(N)c34)cc2)c1 (centres unmarked) [Compound 45, (E)-4-(4-amino-1-(2-(4-(dimethylamino)but-2-enoyl)octahydrocyclopenta[c]pyrrol-5-yl)-1H-pyrazolo[3,4-d]pyrimidin-3-yl)-N-(4-methylpyridin-2-yl) benzamide] | 0.01 µM | < 50% | < 50% | < 50% | < 50% | > 50% | < 50% |
| CN(C)C/C=C/C(=O)N1CC2CC(n3nc(-c4ccc(C(=O)Nc5cc(C(F)(F)F)ccn5)cc4)c4c(N)ncnc43)CC2C1 (centres unmarked) [Compound 51, (E)-4-(4-amino-1-(2-(4-(dimethylamino)but-2-enoyl)octahydrocyclopenta [c]pyrrol-5-yl)-1H-pyrazolo[3,4-d]pyrimidin-3-yl)-N-(4-(trifluoromethyl)pyridine-2-yl)benzamide] | 0.1 µM | > 50% | > 50% | < 50% | > 50% | < 50% | < 50% |
| C=CC(=O)N1CC2CC(n3nc(-c4ccc(C(=O)Nc5nc6ccccc6s5)cc4)c4c(N)ncnc43)CC2C1 (centres unmarked) [Compound 34, 4-(1-(2-acryloyloctahydrocyclopenta[c]pyrrol-5-yl)-4-amino-1H-pyrazolo[3,4-d]pyrimidin-3-yl)-N-(benzo[d]thiazol-2-yl)benzamide] | 0.359 µM | < 50% | < 50% | > 50% | > 50% | > 50% | < 50% |

Continued, values first:

| IC50 [1] | inhibition at 10 μM (CYP 2C8) | inhibition at 10 μM (CYP 2C9) | inhibition at 10 μM (CYP 2C19) | inhibition at 10 μM (CYP 3A4) | inhibition at 10 μM (CYP 1A2) | inhibition at 10 μM (CYP 2D6) | SMILES |
| --- | --- | --- | --- | --- | --- | --- | --- |
| 0.218 µM | > 50% | > 50% | < 50% | > 50% | < 50% | < 50% | C=CS(=O)(=O)N1CC2CC(n3nc(-c4ccc(Oc5ccccc5)cc4)c4c(N)ncnc43)CC2C1 (centres unmarked) [Compound 18, 3-(4-phenoxyphenyl)-1-(2-(vinylsulfonyl)octahydrocyclopenta[c]pyrrol-5-yl)-1H-pyrazolo[3,4-d]pyrimidin-4-amine] |
| 0.223 µM | > 50% | > 50% | < 50% | > 50% | < 50% | < 50% | C=CC(=O)N1CC2CC(n3nc(-c4ccc5nc(Oc6ccccc6)sc5c4)c4c(N)ncnc43)CC2C1 (centres unmarked) [Compound 20, 1-(5-(4-amino-3-(2-phenoxybenzo[d]thiazol-6-yl)-1H-pyrazolo [3,4-d]pyrimidin-1-yl)hexahydrocyclopenta[c]pyrrol-2(1H)-yl)prop-2-en-1-one] |
| 0.162 µM | < 50% | < 50% | > 50% | > 50% | > 50% | < 50% | C=CC(=O)N1CC2CC(n3nc(-c4ccc(Oc5cccnc5)cc4)c4c(N)ncnc43)CC2C1 (centres unmarked) [Compound 52, 1-(5-(4-amino-3-(4-(pyridin-3-yloxy)phenyl)-1H-pyrazolo[3,4-d]pyrimidin-1-yl)hexahydrocyclopenta[c]pyrrol-2(1H)-yl)prop-2-en-1-one] |
| 0.013 µM | < 50% | < 50% | < 50% | < 50% | < 50% | < 50% | C#CC(=O)N1CC2CC(n3nc(-c4ccc(Oc5ccccc5)cc4)c4c(N)ncnc43)CC2C1 (centres unmarked) [Compound 11, 1-(5-(4-amino-3-(4-phenoxyphenyl)-1H-pyrazolo[3,4-d]pyrimidin-1-yl)hexahydrocyclopenta[c]pyrrol-2(1H)-yl)prop-2-yn-1-one] |
